According to PubChem BioAssay (NCI):
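Step 1: Grow cells in 96-well plates. Step 2: Expose to compound for 48 hours at 5 concentrations. Step 3: Interpolate endpoints linearly; if unreached, use highest concentration. At the TGI there is no net growth.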

Tests used:
Assay in all cases: NCI-60 cell line screen, 48 h
786-0 renal = tested on: 786-0 renal
A549 NSCLC = tested on: A549 NSCLC
ACHN renal = tested on: ACHN renal
CAKI-1 renal = tested on: CAKI-1 renal
CCRF-CEM leukemia = tested on: CCRF-CEM leukemia
COLO 205 colon = tested on: COLO 205 colon
DLD-1 colon = tested on: DLD-1 colon
DMS 114 small cell lung = tested on: DMS 114 small cell lung
DMS 273 small cell lung = tested on: DMS 273 small cell lung
EKVX NSCLC = tested on: EKVX NSCLC
HCT-116 colon = tested on: HCT-116 colon
HCT-15 colon = tested on: HCT-15 colon
HL-60(TB) leukemia = tested on: HL-60(TB) leukemia
HOP-18 NSCLC = tested on: HOP-18 NSCLC
HOP-62 NSCLC = tested on: HOP-62 NSCLC
HOP-92 NSCLC = tested on: HOP-92 NSCLC
HT29 colon = tested on: HT29 colon
IGROV1 ovarian = tested on: IGROV1 ovarian
K-562 leukemia = tested on: K-562 leukemia
KM12 colon = tested on: KM12 colon
KM20L2 colon = tested on: KM20L2 colon
LOX IMVI melanoma = tested on: LOX IMVI melanoma
LXFL 529 NSCLC = tested on: LXFL 529 NSCLC
M14 melanoma = tested on: M14 melanoma
M19-MEL melanoma = tested on: M19-MEL melanoma
MALME-3M melanoma = tested on: MALME-3M melanoma
MOLT-4 leukemia = tested on: MOLT-4 leukemia
NCI-H23 lung = tested on: NCI-H23 lung
NCI-H460 lung = tested on: NCI-H460 lung
NCI-H522 lung = tested on: NCI-H522 lung
OVCAR-3 ovarian = tested on: OVCAR-3 ovarian
OVCAR-4 ovarian = tested on: OVCAR-4 ovarian
OVCAR-5 ovarian = tested on: OVCAR-5 ovarian
OVCAR-8 ovarian = tested on: OVCAR-8 ovarian
RXF 393 renal = tested on: RXF 393 renal
SF-268 CNS = tested on: SF-268 CNS
SF-295 CNS = tested on: SF-295 CNS
SF-539 CNS = tested on: SF-539 CNS
SK-MEL-2 melanoma = tested on: SK-MEL-2 melanoma
SK-MEL-28 melanoma = tested on: SK-MEL-28 melanoma
SK-MEL-5 melanoma = tested on: SK-MEL-5 melanoma
SK-OV-3 ovarian = tested on: SK-OV-3 ovarian
SN12C renal = tested on: SN12C renal
SNB-19 CNS = tested on: SNB-19 CNS
SNB-75 CNS = tested on: SNB-75 CNS
SNB-78 CNS = tested on: SNB-78 CNS
SR leukemia = tested on: SR leukemia
SW-620 colon = tested on: SW-620 colon
TK-10 renal = tested on: TK-10 renal
U251 CNS = tested on: U251 CNS
UACC-257 melanoma = tested on: UACC-257 melanoma
UACC-62 melanoma = tested on: UACC-62 melanoma
UO-31 renal = tested on: UO-31 renal
A498 renal = tested on: A498 renal
HCC-2998 colon = tested on: HCC-2998 colon
NCI-H226 lung = tested on: NCI-H226 lung
RPMI-8226 leukemia = tested on: RPMI-8226 leukemia

C(=N\OCc1ccccc1)/c1ncccc1C1OCCO1
TGI (786-0 renal): > 100 µM | TGI (A549 NSCLC): > 100 µM | TGI (ACHN renal): > 100 µM | TGI (CAKI-1 renal): > 100 µM | TGI (CCRF-CEM leukemia): > 100 µM | TGI (COLO 205 colon): > 100 µM | TGI (DLD-1 colon): > 100 µM | TGI (DMS 114 small cell lung): > 100 µM | TGI (DMS 273 small cell lung): > 100 µM | TGI (EKVX NSCLC): > 100 µM | TGI (HCT-116 colon): > 100 µM | TGI (HCT-15 colon): > 100 µM | TGI (HL-60(TB) leukemia): > 100 µM | TGI (HOP-18 NSCLC): > 100 µM | TGI (HOP-62 NSCLC): > 100 µM | TGI (HOP-92 NSCLC): > 100 µM | TGI (HT29 colon): > 100 µM | TGI (IGROV1 ovarian): > 100 µM | TGI (K-562 leukemia): > 100 µM | TGI (KM12 colon): > 100 µM | TGI (KM20L2 colon): > 100 µM | TGI (LOX IMVI melanoma): > 100 µM | TGI (LXFL 529 NSCLC): > 100 µM | TGI (M14 melanoma): > 100 µM | TGI (M19-MEL melanoma): > 100 µM | TGI (MALME-3M melanoma): > 100 µM | TGI (MOLT-4 leukemia): > 100 µM | TGI (NCI-H23 lung): > 100 µM | TGI (NCI-H460 lung): > 100 µM | TGI (NCI-H522 lung): > 100 µM | TGI (OVCAR-3 ovarian): > 100 µM | TGI (OVCAR-4 ovarian): > 100 µM | TGI (OVCAR-5 ovarian): > 100 µM | TGI (OVCAR-8 ovarian): > 100 µM | TGI (RXF 393 renal): > 100 µM | TGI (SF-268 CNS): > 100 µM | TGI (SF-295 CNS): > 100 µM | TGI (SF-539 CNS): > 100 µM | TGI (SK-MEL-2 melanoma): > 100 µM | TGI (SK-MEL-28 melanoma): > 100 µM | TGI (SK-MEL-5 melanoma): > 100 µM | TGI (SK-OV-3 ovarian): > 100 µM | TGI (SN12C renal): > 100 µM | TGI (SNB-19 CNS): > 100 µM | TGI (SNB-75 CNS): > 100 µM | TGI (SNB-78 CNS): > 100 µM | TGI (SR leukemia): > 100 µM | TGI (SW-620 colon): > 100 µM | TGI (TK-10 renal): > 100 µM | TGI (U251 CNS): > 100 µM | TGI (UACC-257 melanoma): > 100 µM | TGI (UACC-62 melanoma): > 100 µM | TGI (UO-31 renal): > 100 µM

O=C(O)/C(=C/c1c(O)ccc2ccccc12)c1csc(-c2nc(/C(=C\c3c(O)ccc4ccccc34)C(=O)O)cs2)n1
TGI (786-0 renal): 26.8 µM | TGI (A498 renal): 41.7 µM | TGI (A549 NSCLC): 55.5 µM | TGI (ACHN renal): 18.8 µM | TGI (CCRF-CEM leukemia): 31.4 µM | TGI (COLO 205 colon): 31.4 µM | TGI (DLD-1 colon): 35.5 µM | TGI (DMS 114 small cell lung): 25.5 µM | TGI (EKVX NSCLC): > 100 µM | TGI (HCC-2998 colon): 32.4 µM | TGI (HCT-116 colon): 23.3 µM | TGI (HCT-15 colon): 39 µM | TGI (HL-60(TB) leukemia): 26.4 µM | TGI (HOP-62 NSCLC): 22.2 µM | TGI (HOP-92 NSCLC): 7.77 µM | TGI (HT29 colon): 52.2 µM | TGI (IGROV1 ovarian): 24.1 µM | TGI (K-562 leukemia): 38.6 µM | TGI (KM12 colon): 53.2 µM | TGI (KM20L2 colon): 50.6 µM | TGI (LOX IMVI melanoma): 43.4 µM | TGI (LXFL 529 NSCLC): 29.8 µM | TGI (M14 melanoma): 25.4 µM | TGI (M19-MEL melanoma): 19.9 µM | TGI (MALME-3M melanoma): 3.95 µM | TGI (MOLT-4 leukemia): 36.9 µM | TGI (NCI-H226 lung): 7.39 µM | TGI (NCI-H23 lung): 27.1 µM | TGI (NCI-H460 lung): 49.1 µM | TGI (OVCAR-3 ovarian): 31.3 µM | TGI (OVCAR-5 ovarian): 31.9 µM | TGI (OVCAR-8 ovarian): 49.4 µM | TGI (RPMI-8226 leukemia): 43.8 µM | TGI (RXF 393 renal): 14 µM | TGI (SF-268 CNS): 26.3 µM | TGI (SF-295 CNS): 28.5 µM | TGI (SF-539 CNS): 19.1 µM | TGI (SK-MEL-2 melanoma): 10.2 µM | TGI (SK-MEL-28 melanoma): 32.1 µM | TGI (SK-MEL-5 melanoma): 37.1 µM | TGI (SK-OV-3 ovarian): 26.8 µM | TGI (SNB-19 CNS): 43 µM | TGI (SNB-75 CNS): 23.2 µM | TGI (SNB-78 CNS): 34.7 µM | TGI (SW-620 colon): 59 µM | TGI (TK-10 renal): 58 µM | TGI (U251 CNS): 30.3 µM | TGI (UACC-257 melanoma): 40.9 µM | TGI (UACC-62 melanoma): 23.3 µM | TGI (UO-31 renal): 6.87 µM
